According to publication PMC8286840, “Identifying SARS-CoV-2 antiviral compounds by screening for small molecule inhibitors of Nsp3 papain-like protease” (Biochemical Journal, 2021):
Where a name gives a salt, the structure may show the parent alone. Read-outs that look alike come from different tables or passages of the source.

Experiments:
[1] = target: T1, SARS-CoV-2 PLpro (nsp3 1564–1878) (Severe acute respiratory syndrome coronavirus 2, UniProt P0DTD1); assay: biochemical; set-up: FRET-quenched peptide (Pro3) cleavage by PLpro, 10 min pre-incubation, slope over 20 min, normalised to no-compound control; details: high concentration screen, read-out: % of control remaining
[2] = target: T1, SARS-CoV-2 PLpro (nsp3 1564–1878); assay: biochemical; set-up: FRET-quenched peptide (Pro3) cleavage by PLpro, 10 min pre-incubation, slope over 20 min, normalised to no-compound control; details: low concentration screen, read-out: % of control remaining

CCCN(CCC)[C@H]1CCc2c(F)ccc(O)c2C1 [S(-)-UH-301 hydrochloride]
remaining activity at 3.75 µM ([1]; Well no.=1334): 95.3% | remaining activity at 1.25 µM ([2]; Well no.=1334): 97.2%

N[C@@H](Cn1ccc(=O)[nH]c1=O)C(=O)O [S(-)-Willardiine]
remaining activity at 3.75 µM ([1]; Well no.=1244): 99.9% | remaining activity at 1.25 µM ([2]; Well no.=1244): 100%

Brc1ccc([C@H]2CN3CCSC3=N2)cc1 [S(-)-p-Bromotetramisole oxalate]
remaining activity at 3.75 µM ([1]; Well no.=99): 102% | remaining activity at 1.25 µM ([2]; Well no.=99): 104%

N[C@@H](Cn1cc(I)c(=O)[nH]c1=O)C(=O)O [S-5-Iodowillardiine]
remaining activity at 3.75 µM ([1]; Well no.=1340): 99.5% | remaining activity at 1.25 µM ([2]; Well no.=1340): 102%

Nc1nc(SCc2ccc([N+](=O)[O-])cc2)c2ncn([C@@H]3O[C@H](CO)[C@@H](O)[C@H]3O)c2n1 [S-(4-Nitrobenzyl)-6-thioguanosine]
remaining activity at 3.75 µM ([1]; Well no.=53): 102% | remaining activity at 1.25 µM ([2]; Well no.=53): 101%

O=[N+]([O-])c1ccc(CSc2ncnc3c2ncn3[C@@H]2O[C@H](CO)[C@@H](O)[C@H]2O)cc1 [S-(4-Nitrobenzyl)-6-thioinosine]
remaining activity at 3.75 µM ([1]; Well no.=949): 101% | remaining activity at 1.25 µM ([2]; Well no.=949): 105%

C[C@@](Cc1ccc(O)c(O)c1)(NN)C(=O)O [S-(-)-Carbidopa]
remaining activity at 3.75 µM ([1]; Well no.=677): 97.9% | remaining activity at 1.25 µM ([2]; Well no.=677): 99.2%

CCc1cc(Cl)c(OC)c(C(=O)NC[C@@H]2CCN(CC)C2)c1O [S-(-)-Eticlopride hydrochloride]
remaining activity at 3.75 µM ([1]; Well no.=417): 101% | remaining activity at 1.25 µM ([2]; Well no.=417): 102%

[N-]=[N+]=Nc1ccc(C(=O)CSC[C@H](NC(=O)CC[C@H](N)C(=O)O)C(=O)NCC(=O)O)cc1 [S-(p-Azidophenacyl)glutathione]
remaining activity at 3.75 µM ([1]; Well no.=105): 110% | remaining activity at 1.25 µM ([2]; Well no.=105): 107%

C=CCSC[C@H](N)C(=O)O [S-Allyl-L-cysteine]
remaining activity at 3.75 µM ([1]; Well no.=5435): 97% | remaining activity at 1.25 µM ([2]; Well no.=5435): 99.1%

CCSC(=N)N [S-Ethylisothiourea hydrobromide]
remaining activity at 3.75 µM ([1]; Well no.=459): 101% | remaining activity at 1.25 µM ([2]; Well no.=459): 102%

COC(=O)[C@@H](N)CSC/C=C(\C)CC/C=C(\C)CCC=C(C)C [S-Farnesyl-L-cysteine methylester]
remaining activity at 3.75 µM ([1]; Well no.=4566): 99.1% | remaining activity at 1.25 µM ([2]; Well no.=4566): 98.6%

CSC(=N)NCCC[C@H](N)C(=O)O [S-Methyl-L-thiocitrulline acetate]
remaining activity at 3.75 µM ([1]; Well no.=1024): 101% | remaining activity at 1.25 µM ([2]; Well no.=1024): 101%

CSC(=N)N [S-Methylisothiourea hemisulfate]
remaining activity at 3.75 µM ([1]; Well no.=924): 103% | remaining activity at 1.25 µM ([2]; Well no.=924): 108%

CC(=O)N[C@@H](C(=O)O)C(C)(C)SN=O [S-Nitroso-N-acetylpenicillamine]
remaining activity at 3.75 µM ([1]; Well no.=1045): 98.3% | remaining activity at 1.25 µM ([2]; Well no.=1045): 99.8%

N[C@@H](CCC(=O)N[C@@H](CSN=O)C(=O)NCC(=O)O)C(=O)O [S-Nitrosoglutathione]
remaining activity at 3.75 µM ([1]; Well no.=855): 104% | remaining activity at 1.25 µM ([2]; Well no.=855): 103%

N#CC[C@H](C1CCCC1)n1cc(-c2ncnc3[nH]ccc23)cn1 [S-Ruxolitinib]
remaining activity at 3.75 µM ([1]; Well no.=4841): 97.5% | remaining activity at 1.25 µM ([2]; Well no.=4841): 96.7%

COc1ccc(CCN2CCN(CCCc3ccccc3)CC2)cc1OC [SA4503 (dihydrochloride)]
remaining activity at 3.75 µM ([1]; Well no.=6991): 102% | remaining activity at 1.25 µM ([2]; Well no.=6991): 101%

COc1ccc(CC[C@@H](OC(=O)[C@@H]2CCCCN2C(=O)[C@H](c2cc(OC)c(OC)c(OC)c2)C2CCCCC2)c2cccc(OCCN3CCOCC3)c2)cc1OC [SAFit2]
remaining activity at 3.75 µM ([1]; Well no.=7064): 92.2% | remaining activity at 1.25 µM ([2]; Well no.=7064): 96.3%

CC(C)(C)C[C@@H]1N[C@@H](C(=O)N[C@H]2CC[C@H](O)CC2)[C@H](c2cccc(Cl)c2F)[C@]12C(=O)Nc1cc(Cl)ccc12 [SAR405838]
remaining activity at 3.75 µM ([1]; Well no.=6550): 110% | remaining activity at 1.25 µM ([2]; Well no.=6550): 109%

Nc1nccc(-c2c(-c3ccc(F)cc3)ncn2C2CCNCC2)n1 [SB220025]
remaining activity at 3.75 µM ([1]; Well no.=2604): 99.7% | remaining activity at 1.25 µM ([2]; Well no.=2604): 99.6%

COc1nccc(-c2c(-c3ccc(F)cc3)ncn2C2CCNCC2)n1 [SB242235]
remaining activity at 3.75 µM ([1]; Well no.=2701): 105% | remaining activity at 1.25 µM ([2]; Well no.=2701): 105%

NC(N)=NCCC[C@H](NC(=O)COCC(c1ccccc1)c1ccccc1)C(=O)O [SB290157 (trifluoroacetate)]
remaining activity at 3.75 µM ([1]; Well no.=8404): 92.8% | remaining activity at 1.25 µM ([2]; Well no.=8404): 94.2%

CCOC(=O)[C@H](Cc1ccc([N+](=O)[O-])cc1)NC(=O)c1ccccc1 [SB297006]
remaining activity at 3.75 µM ([1]; Well no.=8132): 97.6% | remaining activity at 3.75 µM ([1]; Well no.=8211): 102% | remaining activity at 1.25 µM ([2]; Well no.=8132): 103%

CN(C)CCOc1ccc(-c2nc(-c3ccncc3)c(-c3ccc4c(c3)CC/C4=N\O)[nH]2)cc1 [SB590885]
remaining activity at 3.75 µM ([1]; Well no.=2749): 99.9% | remaining activity at 1.25 µM ([2]; Well no.=2749): 101%

O=C(Nc1ccccc1Br)N[C@@H]1CCN(c2ccc(C(F)(F)F)cn2)C1 [SB705498]
remaining activity at 3.75 µM ([1]; Well no.=4735): 106% | remaining activity at 1.25 µM ([2]; Well no.=4735): 103%

Oc1ccc(-c2nc(-c3ccc(F)cc3)c(-c3ccncc3)[nH]2)cc1 [SB 202190 - 4-[4-(4-Fluorophenyl)-5-(4-pyridinyl)-1H-imidazol-2-yl]phenol]
remaining activity at 3.75 µM ([1]; Well no.=2380): 94.8% | remaining activity at 1.25 µM ([2]; Well no.=2380): 96.6%

Oc1ccc(-c2nc(-c3ccc(F)cc3)c(-c3ccncc3)[nH]2)cc1 [SB 202190]
remaining activity at 3.75 µM ([1]; Well no.=2614): 95.5% | remaining activity at 1.25 µM ([2]; Well no.=2614): 95%

C[S+]([O-])c1ccc(-c2nc(-c3ccc(F)cc3)c(-c3ccncc3)[nH]2)cc1 (centres unmarked) [SB 203580]
remaining activity at 3.75 µM ([1]; Well no.=2644): 91.7% | remaining activity at 1.25 µM ([2]; Well no.=2644): 91.3%

CCCCN1CCC(COC(=O)c2cc(Cl)c(N)c3c2OCCO3)CC1 [SB 204070 hydrochloride]
remaining activity at 3.75 µM ([1]; Well no.=1170): 99.4% | remaining activity at 1.25 µM ([2]; Well no.=1170): 97.3%

CC#CCOC(=O)c1c(C)nc2sc3c(c2c1N)CCC(O)C3 (centres unmarked) [SB 205384]
remaining activity at 3.75 µM ([1]; Well no.=1508): 96.2% | remaining activity at 1.25 µM ([2]; Well no.=1508): 97.4%

Cn1ccc2cc3c(cc21)CCN3C(=O)Nc1cccnc1 [SB 206553 hydrochloride]
remaining activity at 3.75 µM ([1]; Well no.=1375): 101% | remaining activity at 1.25 µM ([2]; Well no.=1375): 99.8%

Cn1cc(C2=C(c3ccc(Cl)cc3Cl)C(=O)NC2=O)c2ccccc21 [SB 216763 - 3-(2,4-Dichlorophenyl)-4-(1-methyl-1H-indol-3-yl)-1H-pyrrole-2,5-dione]
remaining activity at 3.75 µM ([1]; Well no.=2442): 100% | remaining activity at 1.25 µM ([2]; Well no.=2442): 96.9%

O=C1NC(=O)c2c1c1c3ccccc3n3c1c1c2c2ccccc2n1[C@H]1CC[C@@H]3O1 [SB 218078]
remaining activity at 3.75 µM ([1]; Well no.=2648): 94.3% | remaining activity at 1.25 µM ([2]; Well no.=2648): 92.1%

Cc1nc(-c2ccc(-c3ccc(C(=O)N4CCc5cc6c(cc54)C4(CCN(C)CC4)CO6)cc3)c(C)c2)no1 [SB 224289 hydrochloride]
remaining activity at 3.75 µM ([1]; Well no.=1423): 97.3% | remaining activity at 1.25 µM ([2]; Well no.=1423): 96.6%
